Results as given in ChEMBL document CHEMBL3603819, “Targeting zoonotic viruses: Structure-based inhibition of the 3C-like protease from bat coronavirus HKU4--The likely reservoir host to the human coronavirus that causes Middle East Respiratory Syndrome (MERS)” (Bioorg Med Chem, 2015).
pIC50: −log10 of the molar value.

Test system: Pipistrellus bat coronavirus HKU5
Assay: Inhibition of Bat coronavirus HKU5 3CLpro at 100 uM relative to control
Conditions: not given
In the case of O=C(Nc1ccc(N(Cc2ccsc2)C(=O)Cn2nnc3ccccc32)cc1)c1cccs1, the inhibition was 91%.

Test system: not listed separately
Assay: Inhibition of Bat coronavirus HKU5 3CLpro
Parameters: species or system Pipistrellus bat coronavirus HKU5
Conditions: not given
For O=C(Nc1ccc(N(Cc2ccsc2)C(=O)Cn2nnc3ccccc32)cc1)c1cccs1, the pIC50 was 6.27.

Test system: Tylonycteris bat coronavirus HKU4
Conditions: at 100 µM
For O=C(Nc1ccc(N(Cc2ccsc2)C(=O)Cn2nnc3ccccc32)cc1)c1cccs1, the inhibition was 93%.
Molecule CC(C)c1ccc(N(C(=O)c2ccc(C(F)(F)F)nc2)C(C(=O)NC(C)(C)C)c2cccnc2)cc1 (stereo unspecified) has an inhibition of 18%.
CC(C)(C)NC(=O)C(c1cccnc1)N(C(=O)c1ccco1)c1ccc(NS(=O)(=O)c2ccccc2)cc1 (stereo unspecified) showed an inhibition of 16%.
Work on CC(C)(C)NC(=O)C(c1ccsc1)N(C(=O)c1ccco1)c1ccc(OC(F)F)cc1 (stereo unspecified) yielded an inhibition of 13%.
With CC(C)c1ccc(N(C(=O)c2ccco2)C(C(=O)NC(C)(C)C)c2ccsc2)cc1 (stereo unspecified) the inhibition was 18%.
For O=C(Cn1nnc2ccccc21)N(Cc1ccsc1)c1ccc(-c2ccncc2)cc1, the inhibition was 98%.
For CC(C)C(=O)Nc1ccc(N(Cc2ccsc2)C(=O)Cn2cc([Si](C)(C)C)nn2)cc1, the inhibition was 15%.
CC(=O)Nc1ccc(N(C(=O)Cn2nnc3ccccc32)C(C(=O)NC(C)(C)C)c2cccc(F)c2)cc1 (stereo unspecified) gave an inhibition of 71%.
In the case of CC(C)(C)NC(=O)C(c1cccnc1)N(C(=O)c1cnccn1)c1ccc(C(C)(C)C)cc1 (stereo unspecified), the inhibition was 41%.
CC(C)(C)NC(=O)C(c1cccnc1)N(C(=O)c1cccc(O)c1)c1ccc(C(C)(C)C)cc1 (stereo unspecified) gave an inhibition of 10%.
With CC(C)COC(=O)Nc1ccc(N(C(=O)Cn2nnc3ccccc32)C(C(=O)NC(C)(C)C)c2ccsc2)cc1 (stereo unspecified) the inhibition was 19%.
Molecule CC(C)c1ccc(N(C(=O)c2n[nH]c3ccccc23)C(C(=O)NC(C)(C)C)c2ccsc2)cc1 (stereo unspecified) has an inhibition of 11%.
In the case of CC(C)(C)NC(=O)C(c1cccnc1)N(C(=O)c1ccco1)c1ccc(-c2cccc(F)c2F)cc1 (stereo unspecified), the inhibition was 18%.
In the case of CC(C)(C)NC(=O)C(c1cccnc1)N(C(=O)c1ccco1)c1ccc(-c2ccnc(F)c2)cc1 (stereo unspecified), the inhibition was 16%.
For CC(C)(C)NC(=O)C(c1ccsc1)N(C(=O)c1ccc(C#N)cc1)c1ccc(F)cc1 (stereo unspecified), the inhibition was 13%.
In the case of CC(C)(C)NC(=O)C(c1cccnc1)N(C(=O)c1ccc(C(F)(F)F)nc1)c1ccc(C(C)(C)C)cc1 (stereo unspecified), the inhibition was 15%.
CC(C)(C)NC(=O)C(c1cccnc1)N(C(=O)c1ccco1)c1ccc(-c2ccc(F)c(F)c2)cc1 (stereo unspecified) showed an inhibition of 12%.
CC(C)(C)NC(=O)C(c1ccsc1)N(C(=O)c1ccc(C(F)(F)F)nc1)C1CC1 (stereo unspecified) showed an inhibition of 12%.
CC(C)(C)NC(=O)C(c1ccsc1)N(C(=O)c1ccco1)c1ccc(F)cc1 (stereo unspecified) showed an inhibition of 16%.
O=C(Nc1ccc(N(Cc2ccsc2)C(=O)Cn2nnc3ccccc32)cc1)c1ccccc1 gave an inhibition of 90%.
Molecule CC(C)(C)NC(=O)C(c1cncnc1)N(C(=O)c1ccco1)c1ccc(C(C)(C)C)cc1 (stereo unspecified) has an inhibition of 16%.
With CC(C)(C)NC(=O)C(c1cccnc1)N(C(=O)c1ncc[nH]1)c1ccc(C(C)(C)C)cc1 (stereo unspecified) the inhibition was 22%.
CC(C)(C)NC(=O)C(c1cccnc1)N(C(=O)c1coc2ccccc12)c1ccc(C(C)(C)C)cc1 (stereo unspecified) showed an inhibition of 19%.
For CC(C)(C)NC(=O)C(c1cccnc1)N(C(=O)Cc1cccc2ccccc12)c1ccc(C(C)(C)C)cc1 (stereo unspecified), the inhibition was 26%.
For CC(C)(C)NC(=O)C(c1cccnc1)N(C(=O)c1cc[nH]n1)c1ccc(C(C)(C)C)cc1 (stereo in doubt; 124B), the inhibition was 17%.
Molecule CC(C)(C)NC(=O)C(c1cccnc1)N(C(=O)Cc1cccnc1)c1ccc(F)cc1 (stereo unspecified) has an inhibition of 47%.
Work on COc1ncccc1-c1ccc(N(Cc2ccsc2)C(=O)Cn2nnc3ccccc32)cc1 yielded an inhibition of 90%.
In the case of CC(C)(C)NC(=O)C(c1cccnc1)N(C(=O)c1ccco1)c1ccc(-c2cncnc2)cc1 (stereo unspecified), the inhibition was 14%.
With CC(C)(C)NC(=O)C(c1cccnc1)N(C(=O)c1ccsc1)c1ccc(C(C)(C)C)cc1 (stereo unspecified) the inhibition was 16%.
With CC(=O)Nc1ccc(N(C(=O)Cn2cnc3ccccc32)C(C(=O)NC(C)(C)C)c2ccsc2)cc1 (stereo unspecified) the inhibition was 14%.
Work on CC(C)(C)NC(=O)C(c1ccsc1)N(C(=O)Cn1nnc2ccccc21)c1ccc(C(C)(C)C)cc1 (stereo unspecified) yielded an inhibition of 9%.
Work on CC(C)(C)OC(=O)n1cccc1-c1ccc(N(Cc2ccsc2)C(=O)Cn2nnc3ccccc32)cc1 yielded an inhibition of 31%.
CC(C)c1ccc(N(C(=O)c2cccc3c2CCCC3)C(C(=O)NC(C)(C)C)c2cccnc2)cc1 (stereo unspecified) showed an inhibition of 25%.
For CC(C)(C)NC(=O)C(c1cccnc1)N(C(=O)Cc1c[nH]c2ccccc12)c1ccc(F)cc1 (stereo unspecified), the inhibition was 41%.
With COc1ncc(-c2ccc(N(Cc3ccsc3)C(=O)Cn3nnc4ccccc43)cc2)cn1 the inhibition was 83%.
For CC(C)(C)NC(=O)C(c1cccnc1)N(C(=O)c1cccc2c1CCCC2)c1ccc(C(C)(C)C)cc1 (stereo unspecified), the inhibition was 21%.
CC(C)(C)NC(=O)C(c1ccsc1)N(C(=O)c1cccc2c1CCCC2)c1ccc(C(C)(C)C)cc1 (stereo unspecified) gave an inhibition of 14%.
In the case of CC(C)(C)NC(=O)C(c1cccnc1)N(C(=O)c1ccccc1O)c1ccc(C(C)(C)C)cc1 (stereo unspecified), the inhibition was 11%.
With Cc1nc2ccccc2n1CC(=O)N(c1ccc(NC(=O)C(C)C)cc1)C(C(=O)NC(C)(C)C)c1ccsc1 (stereo unspecified) the inhibition was 14%.
In the case of Cc1nccn1CC(=O)N(c1ccc(NC(=O)C(C)C)cc1)C(C(=O)NC(C)(C)C)c1ccsc1 (stereo unspecified), the inhibition was 18%.
With CC(C)(C)NC(=O)C(c1cccnc1)N(C(=O)Cc1cnc[nH]1)c1ccc(C(C)(C)C)cc1 (stereo unspecified) the inhibition was 24%.
In the case of CC(C)(C)NC(=O)C(c1cncnc1)N(C(=O)c1c[nH]cn1)c1ccc(C(C)(C)C)cc1 (stereo unspecified), the inhibition was 84%.
For CC(C)(C)NC(=O)C(c1ccsc1)N(C(=O)Cc1c[nH]c2ccccc12)C1CC1 (stereo unspecified), the inhibition was 17%.
Work on CC(C)(C)NC(=O)C(c1cccnc1)N(C(=O)Cc1c[nH]c2ccccc12)c1ccc(C(C)(C)C)cc1 (stereo unspecified) yielded an inhibition of 79%.
Molecule Cc1nc2ccccc2n1CC(=O)N(c1ccc(N)cc1)C(C(=O)NC(C)(C)C)c1ccsc1 (stereo unspecified) has an inhibition of 14%.
Molecule CC(C)(C)NC(=O)C(c1cccnc1)N(C(=O)c1c[nH]cn1)c1ccc(C(C)(C)C)cc1 (racemic) has an inhibition of 94%.
In the case of Cn1cnc(C(=O)N(c2ccc(C(C)(C)C)cc2)C(C(=O)NC(C)(C)C)c2cccnc2)c1 (stereo unspecified), the inhibition was 60%.
Molecule CC(C)c1ccc(N(C(=O)Cc2c[nH]c3ccccc23)C(C(=O)NC(C)(C)C)c2cccnc2)cc1 (stereo unspecified) has an inhibition of 78%.
With O=C(Cn1nnc2ccccc21)N(Cc1ccsc1)c1ccc(NC(=O)C(F)(F)F)cc1 the inhibition was 92%.
